Test results from ChEMBL document CHEMBL1201862, “PubChem BioAssay data set” (2004).
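All cell lines were grown in 96-well plates and treated with compound for 48 hours. GI50 is the concentration that inhibits growth by half.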 Active and inactive are the calls of the source. No stated cut-off is given here; in the data, active = GI50 up to about 1.1 µM and inactive = higher.

How the values were obtained:
Experiment in all cases: growth of human tumour cells (NCI), 48 h
[1] = test system: CCRF-CEM
[2] = test system: EKVX
[3] = test system: HCT-116
[4] = test system: HOP-92
[5] = test system: KM12
[6] = test system: Malme-3M
[7] = test system: OVCAR-5
[8] = test system: RXF 393
[9] = test system: SK-MEL-2
[10] = test system: SNB-19
[11] = test system: SR
[12] = test system: U-251
[13] = test system: UO-31
[14] = test system: CAKI-1

CCOC(=O)N1C2C=C(C)C(ON2C(=O)c2ccccc2)C2C(C)C(=O)N21 (stereo unspecified)
GI50 [1]: > 100 µM (inactive) | GI50 [2]: > 100 µM (inactive) | GI50 [3]: > 100 µM (inactive) | GI50 [4]: > 100 µM (inactive) | GI50 [5]: > 100 µM (inactive) | GI50 [6]: > 100 µM (inactive) | GI50 [7]: > 100 µM (inactive) | GI50 [8]: > 100 µM (inactive) | GI50 [9]: > 100 µM (inactive) | GI50 [10]: > 100 µM (inactive) | GI50 [11]: > 100 µM (inactive) | GI50 [12]: > 100 µM (inactive) | GI50 [13]: > 100 µM (inactive)

COc1ccc(O)c(C#N)c1C#N
GI50 [14]: > 100 µM (inactive) | GI50 [1]: > 100 µM (inactive) | GI50 [2]: > 100 µM (inactive) | GI50 [3]: > 100 µM (inactive) | GI50 [5]: > 100 µM (inactive) | GI50 [6]: > 100 µM (inactive) | GI50 [7]: > 100 µM (inactive) | GI50 [8]: > 100 µM (inactive) | GI50 [9]: > 100 µM (inactive) | GI50 [10]: > 100 µM (inactive) | GI50 [12]: > 100 µM (inactive) | GI50 [13]: > 100 µM (inactive)

O=[N+]([O-])c1cc([N+](=O)[O-])c(C(Cl)C(Cl)c2ccccc2)cc1C(Cl)C(Cl)c1ccccc1 (stereo unspecified)
GI50 [14]: 1.71 µM (inactive) | GI50 [1]: 2.21 µM (inactive) | GI50 [2]: 2.2 µM (inactive) | GI50 [3]: 1.19 µM (inactive) | GI50 [4]: 1.6 µM (inactive) | GI50 [5]: 1.85 µM (inactive) | GI50 [6]: 1.76 µM (inactive) | GI50 [7]: 2.14 µM (inactive) | GI50 [8]: 1.33 µM (inactive) | GI50 [9]: 2 µM (inactive) | GI50 [10]: 2.32 µM (inactive) | GI50 [11]: 3.18 µM (inactive) | GI50 [12]: 1.82 µM (inactive) | GI50 [13]: 1.51 µM (inactive)

O=C(CCn1[nH]c(=O)c(Cl)c(Cl)c1=O)NNC(=O)C[n+]1ccccc1
GI50 [14]: > 100 µM (inactive) | GI50 [1]: > 100 µM (inactive) | GI50 [2]: > 100 µM (inactive) | GI50 [5]: > 100 µM (inactive) | GI50 [6]: > 100 µM (inactive) | GI50 [7]: > 100 µM (inactive) | GI50 [8]: > 100 µM (inactive) | GI50 [9]: > 100 µM (inactive) | GI50 [10]: > 100 µM (inactive) | GI50 [13]: > 100 µM (inactive)

CC(C)(C)C#C[P+](c1ccccc1)(c1ccccc1)c1ccccc1
GI50 [14]: 0.804 µM (active) | GI50 [1]: 0.108 µM (active) | GI50 [2]: 0.566 µM (active) | GI50 [3]: 0.177 µM (active) | GI50 [4]: 0.194 µM (active) | GI50 [5]: 0.238 µM (active) | GI50 [6]: 0.349 µM (active) | GI50 [7]: 1.15 µM (inactive) | GI50 [8]: 0.329 µM (active) | GI50 [9]: 0.409 µM (active) | GI50 [10]: 0.274 µM (active) | GI50 [11]: 0.149 µM (active) | GI50 [12]: 0.119 µM (active) | GI50 [13]: 1.04 µM (active)

CCOC(=O)Cc1nc2ccccc2s1
GI50 [14]: 19.6 µM (inactive) | GI50 [1]: 18.8 µM (inactive) | GI50 [2]: 39.4 µM (inactive) | GI50 [3]: 18.2 µM (inactive) | GI50 [5]: > 10 µM (inactive) | GI50 [6]: 16.3 µM (inactive) | GI50 [7]: 24.9 µM (inactive) | GI50 [8]: 20.9 µM (inactive) | GI50 [9]: 18.2 µM (inactive) | GI50 [10]: 44.5 µM (inactive) | GI50 [11]: 20.1 µM (inactive) | GI50 [12]: 17 µM (inactive) | GI50 [13]: 15.8 µM (inactive)

CN(C)CCNC(=O)Cc1ccccc1Nc1c(Cl)cccc1Cl
GI50 [1]: 14.3 µM (inactive) | GI50 [2]: 17.4 µM (inactive) | GI50 [3]: 17.2 µM (inactive) | GI50 [5]: 18.5 µM (inactive) | GI50 [7]: 11.7 µM (inactive) | GI50 [8]: 15.3 µM (inactive) | GI50 [10]: 17.2 µM (inactive) | GI50 [11]: 15.2 µM (inactive) | GI50 [12]: 10.9 µM (inactive) | GI50 [13]: 12.6 µM (inactive)

O=c1[nH]cc(C(F)(C(F)(F)F)C(F)(F)F)c(=O)[nH]1
GI50 [14]: > 100 µM (inactive) | GI50 [1]: > 100 µM (inactive) | GI50 [2]: > 100 µM (inactive) | GI50 [3]: > 100 µM (inactive) | GI50 [4]: > 100 µM (inactive) | GI50 [5]: > 100 µM (inactive) | GI50 [6]: > 100 µM (inactive) | GI50 [7]: > 100 µM (inactive) | GI50 [8]: > 100 µM (inactive) | GI50 [9]: > 100 µM (inactive) | GI50 [10]: > 100 µM (inactive) | GI50 [12]: > 100 µM (inactive) | GI50 [13]: > 100 µM (inactive)

O=c1[nH]c(-c2ccccc2)nc2cc(Cl)ccc12
GI50 [14]: > 100 µM (inactive) | GI50 [1]: > 100 µM (inactive) | GI50 [2]: > 100 µM (inactive) | GI50 [3]: > 100 µM (inactive) | GI50 [5]: > 100 µM (inactive) | GI50 [6]: > 100 µM (inactive) | GI50 [7]: > 100 µM (inactive) | GI50 [8]: > 100 µM (inactive) | GI50 [9]: > 100 µM (inactive) | GI50 [12]: > 100 µM (inactive) | GI50 [13]: > 100 µM (inactive)

C[C@@H]1C(=O)CC2C(C)(C)CCC[C@]2(C)[C@@]12CC[C@]1(C=COC1)O2 (stereo partly specified)
GI50 [14]: 64.3 µM (inactive) | GI50 [1]: 23.4 µM (inactive) | GI50 [2]: 42.9 µM (inactive) | GI50 [3]: 30.2 µM (inactive) | GI50 [4]: 13.8 µM (inactive) | GI50 [5]: 39.4 µM (inactive) | GI50 [6]: 27.8 µM (inactive) | GI50 [7]: > 100 µM (inactive) | GI50 [8]: 16 µM (inactive) | GI50 [9]: 22.7 µM (inactive) | GI50 [10]: 61 µM (inactive) | GI50 [11]: 22 µM (inactive) | GI50 [13]: 29.9 µM (inactive)

COC(=O)c1c[nH]cc1CCc1c[nH]cc1C(=O)OC
GI50 [14]: > 100 µM (inactive) | GI50 [1]: > 100 µM (inactive) | GI50 [2]: > 100 µM (inactive) | GI50 [3]: > 100 µM (inactive) | GI50 [4]: > 100 µM (inactive) | GI50 [5]: > 100 µM (inactive) | GI50 [6]: > 100 µM (inactive) | GI50 [7]: > 100 µM (inactive) | GI50 [8]: 27.2 µM (inactive) | GI50 [9]: > 100 µM (inactive) | GI50 [10]: > 100 µM (inactive) | GI50 [11]: > 100 µM (inactive) | GI50 [12]: > 100 µM (inactive)
